{"source": "patent US20210251983A1", "about": "“METHODS OF TREATMENT WITH BUPRENORPHINE” (BioDelivery Sciences International, Inc., priority 2020, published 2021)", "key": {"pupil diameter": {"test_system": "pupil diameter", "assay": "Pupillometry during VRH testing", "assay_type": "in vivo, human", "conditions": "time after dosing"}, "[1]": {"assay": "Treatment-emergent adverse events"}, "[2]": {"assay": "Pharmacokinetic assessment - abuse quotient (plasma Cmax, Tmax, AUC0-last, AQ)", "conditions": "for AUC(0-t) / Cmax / Tmax: both, human, plasma, oral"}, "respiratory drive": {"test_system": "respiratory drive", "assay": "Ventilatory response to hypercapnia (VRH) test of respiratory drive, phase I placebo-controlled crossover trial"}}, "note": "Entries after “also recorded” stand apart in the source; their conditions may differ."}
{"molecule": "COc1ccc2c3c1O[C@H]1C(=O)CC[C@@]4(O)[C@@H](C2)N(C)CC[C@]314.Cl", "note": "[IR Oxycodone, oxycodone hydrochloride]", "values": [{"measurement": "initial onset of statistically significant miosis (relative to placebo)", "setting": "pupil diameter; oxycodone 30 mg", "value": 0.5, "unit": "h"}, {"measurement": "initial onset of statistically significant miosis (relative to placebo)", "setting": "pupil diameter; oxycodone 60 mg", "value": 0.5, "unit": "h"}, {"measurement": "treatment-emergent adverse events", "setting": "[1]; all doses", "value": "produced some adverse events"}, {"measurement": "treatment-emergent adverse events", "setting": "[1]; oxycodone 60 mg", "value": "highest percentage of adverse events in all categories"}, {"measurement": "Cmax dependence on dose", "setting": "[2]; BBF 300-900 μg, IR oxycodone 30, 60 mg", "value": "increased proportionally with dose"}, {"measurement": "AUC(0-t)", "setting": "[2]; 30 mg", "value": 216, "unit": "ng·h/mL"}, {"measurement": "Cmax", "setting": "[2]; 30 mg", "value": 65.8, "unit": "ng/mL"}, {"measurement": "Tmax", "setting": "[2]; 30 mg", "value": 1.2, "unit": "h"}, {"measurement": "AUC(0-t)", "setting": "[2]; 60 mg", "value": 435, "unit": "ng·h/mL"}, {"measurement": "Cmax", "setting": "[2]; 60 mg", "value": 132, "unit": "ng/mL"}, {"measurement": "Tmax", "setting": "[2]; 60 mg", "value": 1.2, "unit": "h"}, {"measurement": "effect on respiratory drive (Emax) relative to placebo", "setting": "respiratory drive; across all doses tested (BBF 300-900 μg; oxycodone 30, 60 mg), hydrochloride", "value": "dose-dependent decrease in respiratory drive; also recorded: decreased respiratory drive in a dose-dependent fashion"}, {"measurement": "least square mean difference in Emax (maximum minute ventilation) versus placebo", "setting": "respiratory drive; oral oxycodone 30 mg, P=0.668", "value": "−828.5"}, {"measurement": "least square mean difference in Emax (maximum minute ventilation) versus placebo", "setting": "respiratory drive; oral oxycodone 60 mg, P=0.008", "value": "−5188.6"}, {"measurement": "minute ventilation relative to placebo", "setting": "respiratory drive; oxycodone 30 mg", "value": "significant (P<0.05) decrease at one hour post-dose"}, {"measurement": "Peak Expiratory Flow Rate (PEFR) relative to placebo", "setting": "respiratory drive; oxycodone 30 mg, 1 hour post-dose", "value": "significant (P<0.05) decrease in PEFR at 1 hour post-dose"}, {"measurement": "minute ventilation relative to placebo", "setting": "respiratory drive; oxycodone 60 mg", "value": "significant (P<0.05) decreases at 1 hour, 2 hour, and 4 hours post-dose"}, {"measurement": "Peak Expiratory Flow Rate (PEFR) relative to placebo", "setting": "respiratory drive; oxycodone 60 mg, 30 minutes post-dose", "value": "significant (P<0.05) decrease at 30 minutes"}, {"measurement": "Peak Expiratory Flow Rate (PEFR) relative to placebo", "setting": "respiratory drive; oxycodone 60 mg, 1 hour post-dose", "value": "significant (P<0.05) decrease in PEFR at 1 hour post-dose"}, {"measurement": "oxygen saturation level, one subject (adverse event)", "setting": "respiratory drive; oxycodone 60 mg, approximately 1.5 hours after dosing", "value": 86, "unit": "%"}]}
